Results: patent publication US6306857A, “Methods for treating or preventing alzheimer's disease using substituted 1-aryl-3-piperazin-1'-yl propanones” (Molecular Geriatrics Corporation, priority 1999, dated 2001)
Structures can show the parent of a compound that is named as a salt.

Columns and labels:
[1] = test system: TG3 immunoreactivity in OKA treated MSN1a cells; assay: inhibition of TG3 immunoreactivity in OKA treated MSN1a cells (ELISA); format: cell-based, human; conditions: for IC50: Homo sapiens, 1 μM OKA, 0-64 μM drug, 2 hrs at 37° C., TG3 antibody
Procedure: Therefore, the therapeutic activity of the compounds of the invention was assessed by the ability of these agents to affect the production of abnormally phosphorylated epitopes pertinent to the production of PHFs of AD, utilizing a human neuroblastoma cell line (MSN1a) in the presence of the protein phosphatsse inhibitor, okadaic acid (OKA).
This assay can thus be used to determine whether a drug is capable of preventing or intervening in AD by attenuating the production of abnormally phosphorylated paired helical filament epitopes associated with AD. To determine whether a drug is capable of preventing or intervening in AD activity, the MSN1a cells containing tau and associated proteins are treated with OKA capable of greatly increasing immnunoreactivity of the MSN1a cells with AD specific monoclonal antibodies. Then, either prior to or concomitantly with OKA treatment, a compound of the present invention is added to the culture. If the compound prevents the induction of the AD epitopes in the MSN1a cells treated with OKA, then it is said to have anti-AD activity. If the AD-specific antibodies are highly reactive with the neuroblastoma cells following OKA treatment in the presence of compound, then the compound is said to be ineffectual against AD.
The MSN1a human neuroblastoma line was subcloned from a population of MSN cells obtained from the laboratory of Dr. Peter Davies (Albert Einstein College of Medicine, New York, N.Y.). Cells were grown and maintained in flasks in RPMI 1640 medium, supplemented with 15% fetal calf serum, 100 U/ml penicillin, 100 U/ml Streptomycin, 0.5 ug/ml fungizone under 7.5% CO2 at 37° C.
Stock solutions of drugs were prepared by dissolving the anhydrous powders to final concentrations of either 10 or 20 mM in 50% aqueous or 100% dimethyl sulfoxide (DMSO), respectively. […]
MSN cells grown in 225 cm^2 flasks are removed from the incubator, their medium decanted and replaced with 50 ml pre-warmed KRH. […] The supernatants are discarded and the cell pellets are resuspended, the cells counted and diluted to a density of 2×10^4 cells/50 ml. […]

[2] = test system: PHF epitopes in MSN1a cells (PHF-1 immunoreactivity); assay: PHF-1 immunoreactivity (western blot) in okadaic acid treated MSN1a cells; format: cell-based, human
Procedure: FIG. 3 is a western blot showing PHF-1 immunoreactivity in lysates from control and chlorpromazine treated MSN cells treated with okadaic acid.
These compounds are effective at micromolar concentrations, with increased potency being evident when cells are treated prior to the addition of okadaic acid. The effective concentrations appear to be in the range at which these drugs are present in the brain following chronic treatment of psychiatric patients (Svendsen, C N, Psychopharmacology, 90, 316-321, 1986).
To determine the effect of chlorpromazine on the paired helical filament epitopes associated with AD, MSN1a cells expressing paired helical filament epitopes were incubated with […] chlorpromazine (CPZ) or a 0.2% DMSO vehicle control for 2 hours at 37° C. The cells were isolated by centrifugation, boiled for 10 minutes and […] protein from the resulting heat stable supernatants were loaded per lane on an SDS-PAGE gel. The gel was electrophoretically transferred to nitrocellulose membrane and then immunostained with PHF-1. […] The use of the MSN1a cell culture model for screening of novel compounds for therapeutic activity in AD is, therefore, quite warranted.

[3] = test system: PHF epitope levels in frontal (Brodman Area 10) and temporal (Brodman Area 38) brain tissue; assay: ALZ-EIA of PHF (ADAP) levels in post-mortem brain tissue of patients chronically treated with chlorpromazine; format: in vivo, human; conditions: chronic treatment; frontal and temporal tissue at autopsy; vs normal controls and AD (FIGS. 4A, 4B)
Procedure: FIG. 4A is a chart showing relative ADAP concentrations in Brodman Area 10 in Alzheimer's Disease patients, normal controls and patients treated with chlorpromazine (Rx).
FIG. 4B is a chart showing relative ADAP concentrations in Brodman Area 38 in Alzheimer's Disease patients, normal controls and patients treated with chlorpromazine (Rx).
Frontal and cortical brain tissue specimens obtained at autopsy from patients chronically treated with chlorpromazine were analyzed using the ALZ-EIA method previously described (Ghanbari, H A, et al, JAMA, 263, 2907, 1990). The results are shown in FIGS. 4A and 4B frontal (Broadman area 10) and temporal (Broadman area 38) regions, respectively. The brain tissue (post-mortem) from approximately the same number of (age matched) normal controls and Alzheimer's Disease patients were also analyzed and are presented in these figures as negative and positive controls (for normal and AD, respectively).

[4] = test system: PHF-1 and TG3 epitopes in MSN1a cells; assay: generation of Alzheimer epitopes (PHF-1 and TG3) in MSN1a cells by okadaic acid; format: cell-based, human
Procedure: Conditions were established which led to hyperphosphorylation of the proteins known to be involved in PHF formation. Using monoclonal antibodies PHF-1 and TG3 generated to human PHF preparations, the effects of a variety of manipulations of the phosphorylation state of these proteins were tested. These tests required that most of the abnormal epitopes recognized by these monoclonal antibodies in the human Alzheimer brain should be generated in the MSN1a cells. […] These epitopes are either absent or present at a very low level in untreated MSN1a cells.
Shown in FIG. 2A are bar graphs (percent of AD) of the ELISA immunoreactivity of brain preparations (AD or normal) to either PHF-1 or TG3. Shown in FIG. 2B are bar graphs (percent of MSN+) of the ELISA immunoreactivity of MSN1a cell preparations (minus or plus okadaic acid) to either PHF-1 or TG3. The MSN1a cell preparations plus vs minus okadaic acid closely parallel the AD vs nomal brain preparations. […] The cell culture system according to the invention in which epitopes characteristic of PHF can be readily generated and subsequently recognized by the specific Alzheimer brain specific antibodies provides an assay suitable for screening compounds for their ability to block the production of these phosphorylated epitopes.

CN(C)CCCN1c2ccccc2Sc2ccc(Cl)cc21 [Chlorpromazine, chlorpromazine]
inhibition of the production of aberrantly phosphorylated epitopes ([1]; MSN1a cell culture model, TG3): effective in inhibiting the production of these aberrant phosphorylated epitopes
production of paired helical filament epitopes by the MSN1a cells ([2]; 100 mM chlorpromazine, 2 hours at 37° C., PHF-1 immunostain): greatly decreased the production of paired helical filament epitopes
inhibition of the expression of PHF epitopes ([2]; MSN1a cells treated with okadaic acid, Alzheimer's Disease specific antibodies (cf. FIG. 3)): markedly inhibit the expression of PHF epitopes
PHF epitope levels in brain of chlorpromazine treated patients [3]: low PHF epitope levels similar to normal controls

CSc1ccc(C(=O)CCN2CCN(Cc3ccccc3)CC2)cc1 [Example 14, 1-(p-Methylthiophenyl)-3-(4'-benzyl-1'-piperazinyl)-1-propanone dihydrochloride]
IC50 [1]: 5.8 µM

O=C(CCN1CCN(C(=O)c2cccc(F)c2F)CC1)c1ccc([N+](=O)[O-])cc1 [Example 63, 1-(p-Nitrophenyl)-3-[4'-(2",3"-difluorobenzoyl)-1'-piperazinyl]-1-propanonedlhydrochlorde]
IC50 [1]: 7.3 µM

C=C1[C@@H](O)[C@@H]2O[C@]3(CC[C@H](/C=C/[C@@H](C)[C@@H]4CC(C)=C[C@@]5(O[C@H](C[C@@](C)(O)C(=O)O)CC[C@H]5O)O4)O3)CC[C@H]2O[C@@H]1[C@@H](O)C[C@H](C)[C@H]1O[C@@]2(CCCCO2)CC[C@H]1C [okadaic acid]
generation of the epitopes associated with Alzheimer brain specific monoclonal antibodies [4]: found to generate the epitopes
